Assay results from patent EP4810500A1, “IMIDAZOL-2-ONE DERIVATIVE AND USE THEREOF IN MEDICINE” (Haisco Pharmaceutical Group Co., Ltd., priority 2023, dated 2025).

Each compound was assayed against GLP-1R (Homo sapiens, UniProt P43220) (assay: In vitro activity assay (cAMP HTRF, HEK293-CRE-luc-GLP-1R cells)). Conditions: cAMP HTRF 665 nm/620 nm, 1 h incubation.
Assay type: cell-based
Design: expressed in transfected cells; host or cells: HEK293 (HEK293-CRE-luc-GLP-1R)
Method: HEK293-CRE-luc-GLP-1R cells were seeded into a 384-well cell culture plate (Greiner #781946) at a certain cell density (5 µL/well). 5 µl/well of 2× working solution was added to the 384-well microplate. The microplate was sealed with parafilm and incubated in a 37°C 5% CO2 incubator (Thermo) for 1 h. Subsequently, the detection was performed using the cAMP-GS HIRANGE KIT (PerkinElmer, 62AM6PEB), and detection reagents were prepared according to the kit instruction manual. After the incubation, the detection reagents were added to the 384-well microplate, and the microplate was incubated for 1 h at room temperature in the dark. HTRF signals at 665 nm and 620 nm were then measured using a multimode microplate reader. Data were exported from the microplate reader in Excel format. GraphPad Prism was opened. The logarithm of the sample concentration was calculated. Using the logarithm of concentration as the x-axis and the 665 nm/620 nm ratio as the y-axis, four-parameter logistic fitting was performed to obtain the EC50 value of the curve. Table 1: EC50 of compounds against GLP-1

Sequence of GLP-1R (P43220 24-463): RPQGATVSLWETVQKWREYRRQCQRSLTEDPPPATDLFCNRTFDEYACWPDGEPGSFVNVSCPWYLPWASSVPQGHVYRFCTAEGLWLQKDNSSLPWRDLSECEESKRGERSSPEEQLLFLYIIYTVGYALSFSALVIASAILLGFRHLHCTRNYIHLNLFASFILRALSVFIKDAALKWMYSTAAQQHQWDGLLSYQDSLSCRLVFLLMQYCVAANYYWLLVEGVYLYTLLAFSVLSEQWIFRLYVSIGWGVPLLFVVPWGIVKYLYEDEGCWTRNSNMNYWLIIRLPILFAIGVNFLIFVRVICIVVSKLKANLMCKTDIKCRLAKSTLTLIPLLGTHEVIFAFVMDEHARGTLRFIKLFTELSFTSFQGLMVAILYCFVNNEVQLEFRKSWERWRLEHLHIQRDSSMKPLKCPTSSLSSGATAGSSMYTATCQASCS

SMILES | EC50
Cc1cc(-n2nc3c(c2-n2ccn(-c4ccc5c(c4)N(C)C(=O)C54CCN(C(=O)[C@@H]5C[C@H]5F)CC4)c2=O)[C@H](C)N(C(=O)c2cc4cc([C@H]5CCOC(C)(C)C5)ccc4n2[C@@]2(c4noc(=O)[nH]4)C[C@@H]2C)CC3)cc(C)c1F [Compound 13] | < 1 nM
[2H]C([2H])([2H])N1C(=O)C2(CCN(C(=O)C3CC3F)CC2)c2ccc(-n3ccn(-c4c5c(nn4-c4cc(C)c(F)c(C)c4)CCN(C(=O)c4cc6cc(C7CCOC(C)(C)C7)ccc6n4C4(c6noc(=O)[nH]6)CC4C)C5C)c3=O)cc21 (centres unmarked) [Compound 40] | < 1 nM
Cc1cc(-n2nc3c(c2-n2ccn(-c4ccc5c(c4)N(C)C(=O)C54CCOCC4)c2=O)[C@H](C)N(C(=O)c2cc4cc(C5CCOCC5)ccc4n2[C@@]2(c4noc(=O)[nH]4)C[C@@H]2C)CC3)cc(C)c1F [Compound 47] | < 1 nM
[2H]C([2H])([2H])N1C(=O)C2(CCOCC2)c2ccc(-n3ccn(-c4c5c(nn4-c4cc(C)c(F)c(C)c4)CCN(C(=O)c4cc6cc(C7CCOCC7)ccc6n4[C@@]4(c6noc(=O)[nH]6)C[C@@H]4C)[C@H]5C)c3=O)c(F)c21 [Compound 57] | < 1 nM
Cc1cc(-n2nc3c(c2-n2ccn(-c4ccc5c(c4)N(C)C(=O)C54CCN(S(=O)(=O)C5CC5)CC4)c2=O)[C@H](C)N(C(=O)c2cc4cc([C@H]5CCOC(C)(C)C5)ccc4n2[C@@]2(c4noc(=O)[nH]4)C[C@@H]2C)CC3)cc(C)c1F [Compound 20] | < 1 nM
C[C@H]1c2c(nn(-c3ccc(F)c(C4(F)CC4)c3)c2-n2ccn(-c3ccc4c(c3F)N(C)C(=O)C43CCOCC3)c2=O)CCN1C(=O)c1cc2cc(C3CCOCC3)ccc2n1[C@@]1(c2noc(=O)[nH]2)C[C@@H]1C [Compound 49] | < 1 nM
[2H]C([2H])([2H])N1C(=O)C2(CCOCC2)c2ccc(-n3ccn(-c4c5c(nn4-c4ccc(F)c(C(=C)F)c4)CCN(C(=O)c4cc6cc([C@H]7CCOC(C)(C)C7)ccc6n4[C@@]4(c6noc(=O)[nH]6)C[C@@H]4C)[C@H]5C)c3=O)cc21 [Compound 53] | < 1 nM
Cc1cc(-n2nc3c(c2-n2ccn(-c4ccc5c(c4)N(C)C(=O)C54CCN(C(=O)C5C6COCC65)CC4)c2=O)[C@H](C)N(C(=O)c2cc4cc([C@H]5CCOC(C)(C)C5)ccc4n2[C@@]2(c4noc(=O)[nH]4)C[C@@H]2C)CC3)cc(C)c1F (some centres unmarked) [Compound 22] | < 1 nM
Cc1cc(-n2nc3c(c2-n2ccn(-c4ccc5c(c4)N(C)C(=O)C54CCN(C(=O)c5cnn(C6CC6)c5)CC4)c2=O)[C@H](C)N(C(=O)c2cc4cc([C@H]5CCOC(C)(C)C5)ccc4n2[C@@]2(c4noc(=O)[nH]4)C[C@@H]2C)CC3)cc(C)c1F [Compound 25] | < 1 nM
Cc1cc(-n2nc3c(c2-n2ccn(-c4ccc5c(c4)N(C)C(=O)C54CCN(C(=O)N[C@@H]5C[C@@H]5F)CC4)c2=O)[C@H](C)N(C(=O)c2cc4cc([C@H]5CCOC(C)(C)C5)ccc4n2[C@@]2(c4noc(=O)[nH]4)C[C@@H]2C)CC3)cc(C)c1F [Compound 17] | < 1 nM
Cc1cc(-n2nc3c(c2-n2ccn(-c4ccc5c(c4)N(C)C(=O)C54CCN(C(=O)c5cnn(C(F)F)c5)CC4)c2=O)[C@H](C)N(C(=O)c2cc4cc([C@H]5CCOC(C)(C)C5)ccc4n2[C@@]2(c4noc(=O)[nH]4)C[C@@H]2C)CC3)cc(C)c1F [Compound 30] | < 1 nM
C[C@H]1c2c(nn(-c3ccc(F)c(C4CC4)c3)c2-n2ccn(-c3ccc4c(c3F)N(C)C(=O)C43CCOCC3)c2=O)CCN1C(=O)c1cc2cc([C@H]3CCOC(C)(C)C3)ccc2n1[C@@]1(c2noc(=O)[nH]2)C[C@@H]1C [Compound 42] | < 1 nM
[2H]C([2H])([2H])N1C(=O)C2(CCOCC2)c2ccc(-n3ccn(-c4c5c(nn4-c4cc(C)c(F)c(C)c4)CCN(C(=O)c4cc6cc([C@H]7CCOC(C)(C)C7)ccc6n4[C@@]4(c6noc(=O)[nH]6)C[C@@H]4C)[C@H]5C)c3=O)c(F)c21 [Compound 8] | < 1 nM
[2H]C([2H])([2H])N1C(=O)C2(CCOCC2)c2ccc(-n3ccn(-c4c5c(nn4-c4cc(C)c(F)c(C)c4)CCN(C(=O)c4cc6cc(C7CCOCC7)ccc6n4[C@@]4(c6noc(=O)[nH]6)C[C@@H]4C)[C@H]5C)c3=O)cc21 [Compound 58] | < 1 nM
Cc1cc(-n2nc3c(c2-n2ccn(-c4ccc5c(c4)N(C)C(=O)C54CCN(C(=O)C5CCN(C(=O)C6CC6)CC5)CC4)c2=O)[C@H](C)N(C(=O)c2cc4cc([C@H]5CCOC(C)(C)C5)ccc4n2[C@@]2(c4noc(=O)[nH]4)C[C@@H]2C)CC3)cc(C)c1F [Compound 29] | < 1 nM
Cc1cc(-n2nc3c(c2-n2ccn(-c4ccc5c(c4)N(C)C(=O)C54CCN(C(=O)C5(c6ccccn6)CC5)CC4)c2=O)[C@H](C)N(C(=O)c2cc4cc([C@H]5CCOC(C)(C)C5)ccc4n2[C@@]2(c4noc(=O)[nH]4)C[C@@H]2C)CC3)cc(C)c1F [Compound 23] | < 1 nM

SMILES | EC50
Cc1cc(-n2nc3c(c2-n2ccn(-c4ccc5c(c4)N(C)C(=O)C54CCCC4)c2=O)[C@H](C)N(C(=O)c2cc4cc([C@H]5CCOC(C)(C)C5)ccc4n2[C@@]2(c4noc(=O)[nH]4)C[C@@H]2C)CC3)cc(C)c1F [Compound 5] | < 1 nM
Cc1cc(-n2nc3c(c2-n2ccn(-c4ccc5c(c4)N(C)C(=O)C54CCN(C(=O)C5(CF)CC5)CC4)c2=O)[C@H](C)N(C(=O)c2cc4cc([C@H]5CCOC(C)(C)C5)ccc4n2[C@@]2(c4noc(=O)[nH]4)C[C@@H]2C)CC3)cc(C)c1F [Compound 35] | < 1 nM
Cc1cc(-n2nc3c(c2-n2ccn(-c4ccc5c(c4)N(C)C(=O)C54CCN(C(=O)c5cnn(CC6CC6)c5)CC4)c2=O)[C@H](C)N(C(=O)c2cc4cc([C@H]5CCOC(C)(C)C5)ccc4n2[C@@]2(c4noc(=O)[nH]4)C[C@@H]2C)CC3)cc(C)c1F [Compound 32] | < 1 nM
C[C@H]1c2c(nn(-c3ccc(F)c(C4(F)CC4)c3)c2-n2ccn(-c3ccc4c(c3F)N(C)C(=O)C43CCOCC3)c2=O)CCN1C(=O)c1cc2cc([C@H]3CCOC(C)(C)C3)ccc2n1[C@@]1(c2noc(=O)[nH]2)C[C@@H]1C [Compound 46] | < 1 nM
[2H]C([2H])([2H])N1C(=O)C2(CCOCC2)c2ccc(-n3ccn(-c4c5c(nn4-c4ccc(F)c(C6(F)CC6)c4)CCN(C(=O)c4cc6cc([C@H]7CCOC(C)(C)C7)ccc6n4[C@@]4(c6noc(=O)[nH]6)C[C@@H]4C)[C@H]5C)c3=O)c(F)c21 [Compound 45] | < 1 nM
[2H]C([2H])([2H])N1C(=O)C2(CCN(C(=O)C3C4COCC43)CC2)c2ccc(-n3ccn(-c4c5c(nn4-c4cc(C)c(F)c(C)c4)CCN(C(=O)c4cc6cc([C@H]7CCOC(C)(C)C7)ccc6n4[C@@]4(c6noc(=O)[nH]6)C[C@@H]4C)[C@H]5C)c3=O)cc21 (some centres unmarked) [Compound 39] | < 1 nM
COP(=O)(OC)N1CCC2(CC1)C(=O)N(C)c1cc(-n3ccn(-c4c5c(nn4-c4cc(C)c(F)c(C)c4)CCN(C(=O)c4cc6cc([C@H]7CCOC(C)(C)C7)ccc6n4[C@@]4(c6noc(=O)[nH]6)C[C@@H]4C)[C@H]5C)c3=O)ccc12 [Compound 33] | < 1 nM
[2H]C([2H])([2H])N1C(=O)C2(CCN(S(=O)(=O)C3CC3)CC2)c2ccc(-n3ccn(-c4c5c(nn4-c4cc(C)c(F)c(C)c4)CCN(C(=O)c4cc6cc([C@H]7CCOC(C)(C)C7)ccc6n4[C@@]4(c6noc(=O)[nH]6)C[C@@H]4C)[C@H]5C)c3=O)cc21 [Compound 38] | < 1 nM
C=C(F)c1cc(-n2nc3c(c2-n2ccn(-c4ccc5c(c4)N(C)C(=O)C54CCOCC4)c2=O)[C@H](C)N(C(=O)c2cc4cc([C@H]5CCOC(C)(C)C5)ccc4n2[C@@]2(c4noc(=O)[nH]4)C[C@@H]2C)CC3)ccc1F [Compound 52] | < 1 nM
[2H]C([2H])([2H])N1C(=O)C2(CCOCC2)c2ccc(-n3ccn(-c4c5c(nn4-c4ccc(F)c(C6(F)CC6)c4)CCN(C(=O)c4cc6cc(C7CCOCC7)ccc6n4[C@@]4(c6noc(=O)[nH]6)C[C@@H]4C)[C@H]5C)c3=O)c(F)c21 [Compound 51] | < 1 nM
Cc1cc(-n2nc3c(c2-n2ccn(-c4ccc5c(c4)N(C)C(=O)C54CCN(C(=O)C5CC5)CC4)c2=O)[C@H](C)N(C(=O)c2cc4cc([C@H]5CCOC(C)(C)C5)ccc4n2[C@@]2(c4noc(=O)[nH]4)C[C@@H]2C)CC3)cc(C)c1F [Compound 12] | < 1 nM
Cc1cc(-n2nc3c(c2-n2ccn(-c4ccc5c(c4F)N(C)C(=O)C54CCOCC4)c2=O)[C@H](C)N(C(=O)c2cc4cc([C@H]5CCOC(C)(C)C5)ccc4n2[C@@]2(c4noc(=O)[nH]4)C[C@@H]2C)CC3)cc(C)c1F [Compound 7] | < 1 nM
Cc1cc(-n2nc3c(c2-n2ccn(-c4ccc5c(c4)N(C)C(=O)C54CCN(C(=O)COCC5CC5(F)F)CC4)c2=O)[C@H](C)N(C(=O)c2cc4cc([C@H]5CCOC(C)(C)C5)ccc4n2[C@@]2(c4noc(=O)[nH]4)C[C@@H]2C)CC3)cc(C)c1F (some centres unmarked) [Compound 37] | < 1 nM
[2H]C([2H])([2H])N1C(=O)C2(CCOCC2)c2ccc(-n3ccn(-c4c5c(nn4-c4ccc(F)c(C6(F)CC6)c4)CCN(C(=O)c4cc6cc([C@H]7CCOC(C)(C)C7)ccc6n4[C@@]4(c6noc(=O)[nH]6)C[C@@H]4C)[C@H]5C)c3=O)cc21 [Compound 44] | < 1 nM
Cc1cc(-n2nc3c(c2-n2ccn(-c4ccc5c(c4F)N(C)C(=O)C54CCOCC4)c2=O)[C@H](C)N(C(=O)c2cc4cc(C5CCOCC5)ccc4n2[C@@]2(c4noc(=O)[nH]4)C[C@@H]2C)CC3)cc(C)c1F [Compound 56] | < 1 nM
[2H]C([2H])([2H])N1C(=O)C2(CCOCC2)c2ccc(-n3ccn(-c4c5c(nn4-c4ccc(F)c(C6CC6)c4)CCN(C(=O)c4cc6cc([C@H]7CCOC(C)(C)C7)ccc6n4[C@@]4(c6noc(=O)[nH]6)C[C@@H]4C)[C@H]5C)c3=O)c(F)c21 [Compound 43] | < 1 nM
